According to ChEMBL document CHEMBL2407067, “Pyridone-conjugated monobactam antibiotics with gram-negative activity” (J Med Chem, 2013):
Values after ≈ are worked out from the molar mass of the structure shown.

What was measured:
Pseudomonas aeruginosa [1] = assay: Antibacterial activity against Pseudomonas aeruginosa from cystic fibrosis patients by broth microdilution method; format: functional
Acinetobacter sp. = assay: Antibacterial activity against Acinetobacter spp. by broth microdilution method; format: functional
Escherichia coli [2] = assay: Antibacterial activity against Escherichia coli expressing defined beta-lactamase by broth microdilution method; format: functional
Escherichia coli [3] = assay: Antibacterial activity against Escherichia coli expressing CTX-M by broth microdilution method; format: functional
Escherichia coli [4] = assay: Antibacterial activity against Escherichia coli expressing ESBL by broth microdilution method; format: functional
Klebsiella pneumoniae [5] = assay: Antibacterial activity against Klebsiella pneumoniae expressing KPC by broth microdilution method; format: functional
Klebsiella pneumoniae [6] = assay: Antibacterial activity against Klebsiella pneumoniae expressing ESBL by broth microdilution method; format: functional
Klebsiella pneumoniae [7] = assay: Antibacterial activity against Klebsiella pneumoniae expressing defined beta-lactamase by broth microdilution method; format: functional
Pseudomonas aeruginosa [8] = assay: Antibacterial activity against Pseudomonas aeruginosa expressing metallo-beta-lactamase by broth microdilution method; format: functional
Acinetobacter baumannii = assay: Antibacterial activity against Acinetobacter baumannii AB-3167 by broth microdilution method; format: functional
Klebsiella pneumoniae [9] = assay: Antibacterial activity against Klebsiella pneumoniae 1487-07 by broth microdilution method; format: functional
Pseudomonas aeruginosa [10] = assay: microbe, parasite or virus in culture; conditions: 1091-05
Description: Antibacterial activity against Pseudomonas aeruginosa 1091-05 by broth microdilution method

Klebsiella pneumoniae [11] = assay: Antibacterial activity against Klebsiella pneumoniae 1000-02 by broth microdilution method; format: functional
Pseudomonas aeruginosa [12] = assay: Antibacterial activity against Pseudomonas aeruginosa 1042-06 by broth microdilution method; format: functional

MIC (Acinetobacter baumannii) [mg/L] | MIC (Klebsiella pneumoniae [9]) [mg/L] | MIC (Pseudomonas aeruginosa [10]) [mg/L] | MIC (Klebsiella pneumoniae [11]) [mg/L] | MIC (Pseudomonas aeruginosa [12]) [mg/L] | Compound | further results
16 (≈ 27.3 µM) | 64 (≈ 109 µM) | 16 (≈ 27.3 µM) | 64 (≈ 109 µM) | 32 (≈ 54.6 µM) | CC(C)(O/N=C(\C(=O)N[C@@H]1C(=O)N(S(=O)(=O)O)[C@@H]1CNC(=O)c1cccc(O)c1O)c1csc(N)n1)C(=O)O | –
32 (≈ 54.5 µM) | 64 (≈ 109 µM) | 32 (≈ 54.5 µM) | 32 (≈ 54.5 µM) | > 64 | CC(C)(O/N=C(\C(=O)N[C@@H]1C(=O)N(S(=O)(=O)O)[C@@H]1CNC(=O)c1[nH]ccc(=O)c1O)c1csc(N)n1)C(=O)O | –
4 (≈ 6.78 µM) | > 64 | 4 (≈ 6.78 µM) | > 64 | > 64 | NCCO/N=C(\C(=O)N[C@@H]1C(=O)N(S(=O)(=O)O)[C@@H]1CNC(=O)NCc1cc(=O)c(O)cn1O)c1csc(N)n1 | –
0.125 (≈ 0.213 µM) | – | 0.125 (≈ 0.213 µM) | 0.5 (≈ 0.851 µM) | 0.5 (≈ 0.851 µM) | CC(C)(O/N=C(\C(=O)N[C@@H]1C(=O)N(S(=O)(=O)O)[C@@H]1CNC(=O)c1cc(=O)c(O)c[nH]1)c1csc(N)n1)C(=O)O | –
1 (≈ 1.62 µM) | 8 (≈ 13 µM) | 1 (≈ 1.62 µM) | 1 (≈ 1.62 µM) | 4 (≈ 6.48 µM) | COn1cc(O)c(=O)cc1C(=O)NC[C@@H]1[C@H](NC(=O)/C(=N\OC(C)(C)C(=O)O)c2csc(N)n2)C(=O)N1S(=O)(=O)O | –
4 (≈ 6.65 µM) | 4 (≈ 6.65 µM) | 4 (≈ 6.65 µM) | – | 4 (≈ 6.65 µM) | Cn1cc(O)c(=O)cc1C(=O)NC[C@@H]1[C@H](NC(=O)/C(=N\OC(C)(C)C(=O)O)c2csc(N)n2)C(=O)N1S(=O)(=O)O | –
1 (≈ 1.55 µM) | 4 (≈ 6.2 µM) | 1 (≈ 1.55 µM) | 0.25 (≈ 0.387 µM) | 2 (≈ 3.1 µM) | CC(C)(O/N=C(\C(=O)N[C@@H]1C(=O)N(S(=O)(=O)O)[C@@H]1CNC(=O)c1cc(=O)c(O)cn1CC(=O)O)c1csc(N)n1)C(=O)O | –
2 (≈ 3.24 µM) | 8 (≈ 13 µM) | 2 (≈ 3.24 µM) | 0.5 (≈ 0.811 µM) | 8 (≈ 13 µM) | CNn1cc(O)c(=O)cc1C(=O)NC[C@@H]1[C@H](NC(=O)/C(=N\OC(C)(C)C(=O)O)c2csc(N)n2)C(=O)N1S(=O)(=O)O | –
8 (≈ 13.6 µM) | 64 (≈ 109 µM) | 8 (≈ 13.6 µM) | 32 (≈ 54.4 µM) | 64 (≈ 109 µM) | CC(C)(O/N=C(\C(=O)N[C@@H]1C(=O)N(S(=O)(=O)O)[C@@H]1CNC(=O)c1cc(=O)c(O)co1)c1csc(N)n1)C(=O)O | –
0.125 (≈ 0.19 µM) | 0.5 (≈ 0.759 µM) | 0.25 (≈ 0.38 µM) | 0.25 (≈ 0.38 µM) | 1 (≈ 1.52 µM) | Nc1nc(/C(=N/OC2(C(=O)O)CCCC2)C(=O)N[C@@H]2C(=O)N(S(=O)(=O)O)[C@@H]2CNC(=O)NCc2cc(=O)c(O)cn2O)cs1 | –
– | 4 (≈ 5.95 µM) | 1 (≈ 1.49 µM) | – | 8 (≈ 11.9 µM) | Nc1nc(/C(=N/OC2(C(=O)O)CCCCC2)C(=O)N[C@@H]2C(=O)N(S(=O)(=O)O)[C@@H]2CNC(=O)NCc2cc(=O)c(O)cn2O)cs1 | –
0.5 (≈ 0.79 µM) | > 64 | 0.5 (≈ 0.79 µM) | 32 (≈ 50.6 µM) | 8 (≈ 12.6 µM) | Nc1nc(/C(=N/OCCCC(=O)O)C(=O)N[C@@H]2C(=O)N(S(=O)(=O)O)[C@@H]2CNC(=O)NCc2cc(=O)c(O)cn2O)cs1 | –
0.5 (≈ 0.795 µM) | 32 (≈ 50.9 µM) | 0.5 (≈ 0.795 µM) | 8 (≈ 12.7 µM) | 16 (≈ 25.5 µM) | Nc1nc(/C(=N/OCc2nnn[nH]2)C(=O)N[C@@H]2C(=O)N(S(=O)(=O)O)[C@@H]2CNC(=O)NCc2cc(=O)c(O)cn2O)cs1 | –
0.5 (≈ 0.803 µM) | > 64 | 0.5 (≈ 0.803 µM) | > 64 | 16 (≈ 25.7 µM) | Nc1nc(/C(=N/Oc2ccccc2)C(=O)N[C@@H]2C(=O)N(S(=O)(=O)O)[C@@H]2CNC(=O)NCc2cc(=O)c(O)cn2O)cs1 | –
1 (≈ 1.63 µM) | 32 (≈ 52.1 µM) | 1 (≈ 1.63 µM) | 8 (≈ 13 µM) | 16 (≈ 26 µM) | Nc1nc(/C(=N/OC2CCCC2)C(=O)N[C@@H]2C(=O)N(S(=O)(=O)O)[C@@H]2CNC(=O)NCc2cc(=O)c(O)cn2O)cs1 | –
1 (≈ 1.55 µM) | 16 (≈ 24.9 µM) | 1 (≈ 1.55 µM) | 16 (≈ 24.9 µM) | > 64 | Nc1nc(/C(=N/OCc2cscn2)C(=O)N[C@@H]2C(=O)N(S(=O)(=O)O)[C@@H]2CNC(=O)NCc2cc(=O)c(O)cn2O)cs1 | –
0.5 (≈ 0.847 µM) | 32 (≈ 54.2 µM) | 0.5 (≈ 0.847 µM) | 32 (≈ 54.2 µM) | 16 (≈ 27.1 µM) | Nc1nc(/C(=N/OCCO)C(=O)N[C@@H]2C(=O)N(S(=O)(=O)O)[C@@H]2CNC(=O)NCc2cc(=O)c(O)cn2O)cs1 | –
1 (≈ 1.5 µM) | 32 (≈ 47.9 µM) | 1 (≈ 1.5 µM) | – | 16 (≈ 23.9 µM) | CC(C)(O/N=C(\C(=O)N[C@@H]1C(=O)N(S(=O)(=O)O)[C@@H]1CNS(=O)(=O)NCc1cc(=O)c(O)cn1O)c1csc(N)n1)C(=O)O | –
0.125 (≈ 0.199 µM) | – | 0.125 (≈ 0.199 µM) | – | – | CC(C)(O/N=C(\C(=O)N[C@@H]1C(=O)N(S(=O)(=O)O)[C@@H]1Cn1cc(-c2cc(=O)c(O)cn2O)nn1)c1csc(N)n1)C(=O)O | –
0.125 (≈ 0.176 µM) | 16 (≈ 22.5 µM) | – | – | 1 (≈ 1.41 µM) | CC(C)(O/N=C(\C(=O)N[C@@H]1C(=O)N(S(=O)(=O)O)[C@@H]1CNc1cc(C(=O)NCc2cc(=O)c(O)cn2O)ccn1)c1csc(N)n1)C(=O)O | –
– | 8 (≈ 13.2 µM) | 0.125 (≈ 0.207 µM) | – | 4 (≈ 6.62 µM) | Nc1nc(/C(=N/OCC(=O)O)C(=O)N[C@@H]2C(=O)N(S(=O)(=O)O)[C@@H]2CNC(=O)NCc2cc(=O)c(O)cn2O)cs1 | –
1 (≈ 1.51 µM) | 1 (≈ 1.51 µM) | 1 (≈ 1.51 µM) | – | 16 (≈ 24.2 µM) | CC(C)C[C@H](O/N=C(\C(=O)N[C@@H]1C(=O)N(S(=O)(=O)O)[C@@H]1CNC(=O)NCc1cc(=O)c(O)cn1O)c1csc(N)n1)C(=O)O | –
– | 1 (≈ 1.44 µM) | 1 (≈ 1.44 µM) | – | 8 (≈ 11.5 µM) | Nc1nc(/C(=N/O[C@@H](Cc2ccccc2)C(=O)O)C(=O)N[C@@H]2C(=O)N(S(=O)(=O)O)[C@@H]2CNC(=O)NCc2cc(=O)c(O)cn2O)cs1 | –

Compound | MIC (Acinetobacter baumannii) [mg/L] | MIC (Klebsiella pneumoniae [9]) [mg/L] | MIC (Pseudomonas aeruginosa [10]) [mg/L] | MIC (Klebsiella pneumoniae [11]) [mg/L] | MIC (Pseudomonas aeruginosa [12]) [mg/L] | further results
CO/N=C(\C(=O)N[C@@H]1C(=O)N2C(C(=O)[O-])=C(C[N+]3(C)CCCC3)CS[C@H]12)c1csc(N)n1 | 2 (≈ 4.16 µM) | > 64 | 2 (≈ 4.16 µM) | – | – | MIC50 (Pseudomonas aeruginosa [1]): 8 mg/L (≈ 16.6 µM); MIC90 (Pseudomonas aeruginosa [1]): > 64 mg/L; MIC50 (Acinetobacter sp.): 8 mg/L (≈ 16.6 µM); MIC90 (Acinetobacter sp.): > 64 mg/L; MIC50 (Escherichia coli [2]): 0.25 mg/L (≈ 0.52 µM); MIC90 (Escherichia coli [2]): 4 mg/L (≈ 8.32 µM); MIC50 (Escherichia coli [3]): 64 mg/L (≈ 133 µM); MIC90 (Escherichia coli [3]): > 64 mg/L; MIC50 (Escherichia coli [4]): 64 mg/L (≈ 133 µM); MIC90 (Escherichia coli [4]): > 64 mg/L; MIC50 (Klebsiella pneumoniae [5]): > 64 mg/L; MIC90 (Klebsiella pneumoniae [5]): > 64 mg/L; MIC50 (Klebsiella pneumoniae [6]): 8 mg/L (≈ 16.6 µM); MIC90 (Klebsiella pneumoniae [6]): > 64 mg/L; MIC50 (Klebsiella pneumoniae [7]): 4 mg/L (≈ 8.32 µM); MIC90 (Klebsiella pneumoniae [7]): > 64 mg/L; MIC50 (Pseudomonas aeruginosa [8]): > 64 mg/L; MIC90 (Pseudomonas aeruginosa [8]): > 64 mg/L
O=C(O)c1cn(C2CC2)c2cc(N3CCNCC3)c(F)cc2c1=O [CIPROFLOXACIN] | 0.06 (≈ 0.181 µM) | – | – | – | 64 (≈ 193 µM) | MIC50 (Pseudomonas aeruginosa [1]): 2 mg/L (≈ 6.04 µM); MIC90 (Pseudomonas aeruginosa [1]): 16 mg/L (≈ 48.3 µM); MIC50 (Acinetobacter sp.): 0.5 mg/L (≈ 1.51 µM); MIC90 (Acinetobacter sp.): > 64 mg/L; MIC50 (Escherichia coli [2]): 0.03 mg/L (≈ 0.0905 µM); MIC90 (Escherichia coli [2]): 0.06 mg/L (≈ 0.181 µM); MIC90 (Escherichia coli [3]): > 64 mg/L; MIC50 (Escherichia coli [4]): > 64 mg/L; MIC90 (Escherichia coli [4]): > 64 mg/L; MIC50 (Klebsiella pneumoniae [6]): 0.25 mg/L (≈ 0.754 µM); MIC50 (Klebsiella pneumoniae [7]): 0.5 mg/L (≈ 1.51 µM); MIC50 (Pseudomonas aeruginosa [8]): 32 mg/L (≈ 96.6 µM); MIC90 (Pseudomonas aeruginosa [8]): > 64 mg/L
C[C@@H](O)[C@H]1C(=O)N2C(C(=O)O)=C(S[C@@H]3CN[C@H](C(=O)N(C)C)C3)[C@H](C)[C@H]12 [MEROPENEM] | 0.25 (≈ 0.652 µM) | – | 2 (≈ 5.22 µM) | 0.25 (≈ 0.652 µM) | – | MIC50 (Pseudomonas aeruginosa [1]): 1 mg/L (≈ 2.61 µM); MIC90 (Pseudomonas aeruginosa [1]): 16 mg/L (≈ 41.7 µM); MIC50 (Acinetobacter sp.): 1 mg/L (≈ 2.61 µM); MIC90 (Acinetobacter sp.): 32 mg/L (≈ 83.4 µM); MIC50 (Escherichia coli [2]): 0.03 mg/L (≈ 0.0782 µM); MIC90 (Escherichia coli [2]): 0.06 mg/L (≈ 0.156 µM); MIC50 (Escherichia coli [3]): 0.03 mg/L (≈ 0.0782 µM); MIC90 (Escherichia coli [3]): 0.06 mg/L (≈ 0.156 µM); MIC50 (Escherichia coli [4]): 0.03 mg/L (≈ 0.0782 µM); MIC90 (Escherichia coli [4]): 0.06 mg/L (≈ 0.156 µM); MIC50 (Klebsiella pneumoniae [5]): 32 mg/L (≈ 83.4 µM); MIC90 (Klebsiella pneumoniae [5]): > 64 mg/L; MIC50 (Klebsiella pneumoniae [6]): 0.03 mg/L (≈ 0.0782 µM); MIC90 (Klebsiella pneumoniae [6]): 0.25 mg/L (≈ 0.652 µM); MIC50 (Klebsiella pneumoniae [7]): 0.03 mg/L (≈ 0.0782 µM); MIC90 (Klebsiella pneumoniae [7]): 0.25 mg/L (≈ 0.652 µM)
